The record followed here is ChEMBL document CHEMBL1806458, “The design, synthesis and structure-activity relationships of novel isoindoline-based histone deacetylase inhibitors” (Bioorg Med Chem Lett, 2011).

The structures appear in SMILES notation. pIC50: −log10 of the molar value. Converted amounts (≈) assume the structure as drawn.

Series [1] can be described thus: Thermodynamic solubility of the compound at pH 6.8. The following applies: buffer; for solubility thermodynamic: read-out: Therm_solubility. Type of series: physicochemical.
For a further series, the target named is Cytochrome P450 3A4 (Homo sapiens, UniProt P08684).
Cytochrome P450 3A4, sequence (P08684 whole entry): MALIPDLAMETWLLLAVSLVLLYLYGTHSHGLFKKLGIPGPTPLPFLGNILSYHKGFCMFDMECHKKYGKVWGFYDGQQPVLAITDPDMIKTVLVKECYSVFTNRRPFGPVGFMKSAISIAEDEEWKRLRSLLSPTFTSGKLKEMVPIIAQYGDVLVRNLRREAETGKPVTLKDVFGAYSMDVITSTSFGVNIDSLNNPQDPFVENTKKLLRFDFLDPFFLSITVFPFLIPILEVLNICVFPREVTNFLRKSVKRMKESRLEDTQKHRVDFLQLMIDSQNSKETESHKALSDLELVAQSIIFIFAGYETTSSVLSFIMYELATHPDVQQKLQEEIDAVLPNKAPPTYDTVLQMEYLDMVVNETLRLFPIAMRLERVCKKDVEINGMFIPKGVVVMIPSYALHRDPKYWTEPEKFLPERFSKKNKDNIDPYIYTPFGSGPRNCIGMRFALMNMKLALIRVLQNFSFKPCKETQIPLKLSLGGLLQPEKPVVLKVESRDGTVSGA
Series [2] is described as follows: Half life in rat liver microsomes. Type of series: ADME, Microsome. On the technique in general: Liver microsomes are a subcellular fraction often used to study metabolism.
A short description of series [3]: Half life in human liver microsomes. In kind it is ADME, Microsome.
The test system of another series is HCT-116. Put plainly: cells. The conditions noted are these: Homo sapiens.
For a further series, the target named is Histone deacetylase 1 (Homo sapiens, UniProt Q13547).
Histone deacetylase 1, sequence (Q13547 whole entry): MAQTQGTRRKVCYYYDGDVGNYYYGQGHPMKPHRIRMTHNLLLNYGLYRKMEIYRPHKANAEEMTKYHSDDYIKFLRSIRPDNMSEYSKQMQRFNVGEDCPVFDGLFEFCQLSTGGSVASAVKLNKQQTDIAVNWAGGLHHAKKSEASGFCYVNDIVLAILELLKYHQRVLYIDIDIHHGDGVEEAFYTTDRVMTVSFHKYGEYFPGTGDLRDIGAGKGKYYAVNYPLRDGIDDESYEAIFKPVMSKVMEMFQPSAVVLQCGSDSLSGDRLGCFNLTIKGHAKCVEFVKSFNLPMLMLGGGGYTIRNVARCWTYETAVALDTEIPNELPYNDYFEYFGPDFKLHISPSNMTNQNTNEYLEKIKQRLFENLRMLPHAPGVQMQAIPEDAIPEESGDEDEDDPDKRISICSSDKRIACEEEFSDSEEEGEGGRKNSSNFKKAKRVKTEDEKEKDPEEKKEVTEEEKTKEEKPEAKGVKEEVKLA
In the next series the test system is hERG (KCNH2). The conditions noted are these: human.
The target in series [4] is T1, Voltage-gated inwardly rectifying potassium channel KCNH2 (Homo sapiens, UniProt Q12809). Put plainly: Inhibition of human ERG by automated patch clamp assay. Background: Patch clamp records ionic current or voltage across a cell membrane.
T1 sequence (Q12809 whole entry): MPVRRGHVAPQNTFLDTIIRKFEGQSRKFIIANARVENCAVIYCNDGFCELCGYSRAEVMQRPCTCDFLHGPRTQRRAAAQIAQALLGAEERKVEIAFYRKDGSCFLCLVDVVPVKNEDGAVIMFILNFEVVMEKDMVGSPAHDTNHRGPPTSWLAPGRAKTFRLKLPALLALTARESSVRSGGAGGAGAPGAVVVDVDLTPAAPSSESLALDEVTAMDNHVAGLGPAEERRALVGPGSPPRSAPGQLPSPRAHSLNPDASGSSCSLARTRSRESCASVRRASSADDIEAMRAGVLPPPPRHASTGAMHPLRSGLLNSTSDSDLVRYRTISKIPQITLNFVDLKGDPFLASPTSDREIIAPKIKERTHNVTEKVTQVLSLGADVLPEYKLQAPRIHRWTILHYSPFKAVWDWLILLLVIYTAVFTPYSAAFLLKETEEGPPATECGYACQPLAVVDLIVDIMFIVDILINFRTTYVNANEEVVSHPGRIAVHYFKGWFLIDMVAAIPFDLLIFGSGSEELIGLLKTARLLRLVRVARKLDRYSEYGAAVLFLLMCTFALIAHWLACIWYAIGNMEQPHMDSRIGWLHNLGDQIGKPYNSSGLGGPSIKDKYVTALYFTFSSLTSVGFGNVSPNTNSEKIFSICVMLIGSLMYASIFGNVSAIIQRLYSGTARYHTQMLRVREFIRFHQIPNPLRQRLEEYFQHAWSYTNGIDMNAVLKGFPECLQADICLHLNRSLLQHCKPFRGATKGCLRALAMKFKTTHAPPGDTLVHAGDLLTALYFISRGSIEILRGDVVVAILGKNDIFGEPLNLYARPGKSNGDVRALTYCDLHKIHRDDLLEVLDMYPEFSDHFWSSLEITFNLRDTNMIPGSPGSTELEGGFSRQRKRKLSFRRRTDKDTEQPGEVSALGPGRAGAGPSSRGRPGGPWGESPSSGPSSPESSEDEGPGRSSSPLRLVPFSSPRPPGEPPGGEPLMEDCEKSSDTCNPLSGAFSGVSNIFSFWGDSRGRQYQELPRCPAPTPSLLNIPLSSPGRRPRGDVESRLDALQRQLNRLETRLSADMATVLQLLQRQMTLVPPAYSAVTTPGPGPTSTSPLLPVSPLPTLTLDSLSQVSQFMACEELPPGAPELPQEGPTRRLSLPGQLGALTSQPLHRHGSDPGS
The target in series [5] is T1, Voltage-gated inwardly rectifying potassium channel KCNH2. Put plainly: Binding affinity to human ERG by radioligand binding assay.

Description for HCT-116: Antiproliferative activity against human HCT116 cells
Description for Histone deacetylase 1: Inhibition of purified recombinant HDAC1

One may read the pIC50 as −log10 of the IC50, conventionally taken in molar units. A high value points to a low IC50. A word on the half-life: it is the time needed for the level to fall by half in the phase considered. Read a low half-life as rapid decline. Regarding `Cc1[nH]c2ccccc2c1CCN1Cc2ccc(/C=C/C(=O)NO)cc2C1`, in [1], the solubility thermodynamic was 263 µM (≈ 95.1 µg/mL). In addition, the pIC50 against Cytochrome P450 3A4 was < 5.00; in the series on HCT-116 it was 7.38; against Histone deacetylase 1 it was 7.59; in series [4], 5.32. Also, the half-life in [2] turned out to be 2 min; in series [3], 30 min. In the series with hERG (KCNH2) (hct-116), the selectivity ratio amounted to 114.

For `CC(C)(C)OC(=O)N1Cc2ccc(/C=C/C(=O)NO)cc2C1`, the solubility thermodynamic in [1] was found to be 99 µM (≈ 30.1 µg/mL). Besides, the half-life in series [2] came to 14 min; in series [3], 131 min. In addition, the values for the pIC50 (at Histone deacetylase 1; in [4]) were 6.28 and < 4.52, respectively.

In the case of `CC(C)(C)C(=O)N1Cc2ccc(/C=C/C(=O)NO)cc2C1`, the pIC50 on Histone deacetylase 1 is 6.38; in series [4], < 4.52.

Regarding `O=C(/C=C/c1ccc2c(c1)CN(C(=O)C1CC1)C2)NO`, the pIC50 against Histone deacetylase 1 is 6.38; in series [4] it was < 4.52.

Take `O=C(/C=C/c1ccc2c(c1)CN(C(=O)C1CCCC1)C2)NO`: the pIC50 against Histone deacetylase 1 is 6.46; in [4] it was < 4.52.

Regarding `O=C(/C=C/c1ccc2c(c1)CN(C(=O)C1CCCCC1)C2)NO`, the pIC50 at Histone deacetylase 1 is 6.41.

As to `O=C(/C=C/c1ccc2c(c1)CN(C(=O)c1cccc(C(F)(F)F)c1)C2)NO`, the pIC50 in the series on HCT-116 was 5.24; on Histone deacetylase 1, 6.70.

With `O=C(/C=C/c1ccc2c(c1)CN(C(=O)c1cccnc1)C2)NO`, in [1], the Therm_solubility result is on record as “soluble”. The pIC50 against Histone deacetylase 1 is 6.42; in series [4], < 4.52.

As for `O=C(/C=C/c1ccc2c(c1)CN(C(=O)Cc1ccccc1)C2)NO`, the Therm_solubility result in series [1] was “soluble”. Further, the values for the negative logarithm of the IC50 (pIC50) against Cytochrome P450 3A4, with HCT-116 and against Histone deacetylase 1 were < 4.30, 6.08 and 6.89, respectively.

With `Cc1[nH]c2ccccc2c1CC(=O)N1Cc2ccc(/C=C/C(=O)NO)cc2C1`, the solubility thermodynamic in series [1] was < 20 µM. The half-life was 15 min in series [2] and 173 min in series [3]. The pIC50 was < 4.52 in series [5], 6.72 in the series with HCT-116, 7.70 on Histone deacetylase 1 and < 4.52 in [4]. Moreover, in the series with hERG (KCNH2) (hERG assay and HCT116 cells), the selectivity ratio is > 158.

As to `CS(=O)(=O)N1Cc2ccc(/C=C/C(=O)NO)cc2C1`, in series [1], the Therm_solubility entry was “soluble”. Besides, the negative-log IC50 (pIC50) is 6.20 at Histone deacetylase 1 and < 4.52 in series [4].

Turning to `CCCCS(=O)(=O)N1Cc2ccc(/C=C/C(=O)NO)cc2C1`, the Therm_solubility entry in series [1] was “soluble”. For the same compound, the pIC50 is 5.49 in the series on HCT-116 and 6.82 at Histone deacetylase 1.

With `O=C(/C=C/c1ccc2c(c1)CN(S(=O)(=O)C1CC1)C2)NO`, in series [1], the Therm_solubility entry is recorded as “soluble”. The pIC50 was 6.10 against Histone deacetylase 1 and < 4.52 in series [4].

As to `O=C(/C=C/c1ccc2c(c1)CN(S(=O)(=O)Cc1ccccc1)C2)NO`, the Therm_solubility entry in [1] is on record as “soluble”. Besides, the pIC50 was 5.95 in the series with HCT-116, 6.92 against Histone deacetylase 1 and < 4.52 in series [4].

As to `O=C(/C=C/c1ccc2c(c1)CN(S(=O)(=O)c1ccccc1)C2)NO`, in series [1], the Therm_solubility result is given as “soluble”. Besides, the results for the pIC50 (in the series with HCT-116; against Histone deacetylase 1; in series [4]) were 5.47, 6.72 and < 4.52, respectively.

With `O=C(/C=C/c1ccc2c(c1)CN(S(=O)(=O)c1cccs1)C2)NO`, the solubility thermodynamic in series [1] turned out to be 34 µM (≈ 11.9 µg/mL). The pIC50 on Cytochrome P450 3A4 is < 4.30; with HCT-116 it was 6.10; against Histone deacetylase 1, 7.05.

As for `O=C(/C=C/c1ccc2c(c1)CN(S(=O)(=O)c1ccncc1)C2)NO`, the Therm_solubility entry in series [1] is recorded as “soluble”. Further, the figures for the pIC50 (at Histone deacetylase 1; in series [4]) were 6.32 and < 4.52, respectively.

For `O=C(/C=C/c1ccc2c(c1)CN(S(=O)(=O)c1cccnc1)C2)NO`, the Therm_solubility result in series [1] is “soluble”. In addition, the pIC50 with HCT-116 was 5.37; against Histone deacetylase 1, 6.82; in series [4] it was < 4.52.

For the compound `Cn1cnc(S(=O)(=O)N2Cc3ccc(/C=C/C(=O)NO)cc3C2)c1`, the Therm_solubility result in series [1] is reported as “soluble”. In addition, the values for the pIC50 (in the series with HCT-116; at Histone deacetylase 1; in [4]) were 5.05, 6.85 and < 4.52, respectively.

Consider `Cc1ccc(S(=O)(=O)N2Cc3ccc(/C=C/C(=O)NO)cc3C2)cc1`, for which, in series [1], the solubility thermodynamic worked out at 20 µM (≈ 7.17 µg/mL). The half-life in [2] was found to be 4.1 min; in [3], 11 min. The pIC50 is 5.80 in the series on HCT-116, 7.33 at Histone deacetylase 1 and < 4.52 in series [4].

Turning to `Cc1cccc(S(=O)(=O)N2Cc3ccc(/C=C/C(=O)NO)cc3C2)c1`, the solubility thermodynamic in [1] stood at 20 µM (≈ 7.17 µg/mL). The figures for the half-life in series [2] and in [3] were 7 min and 15 min, respectively. The pIC50 is 5.85 in the series with HCT-116, 7.21 against Histone deacetylase 1 and < 4.52 in series [4].

As for `Cc1ccccc1S(=O)(=O)N1Cc2ccc(/C=C/C(=O)NO)cc2C1`, in series [1], the Therm_solubility result is given as “soluble”. For the same compound, the pIC50 in the series on HCT-116 was 5.65; on Histone deacetylase 1, 6.89.

On to `O=C(/C=C/c1ccc2c(c1)CN(S(=O)(=O)c1ccc(C(F)(F)F)cc1)C2)NO`, for which the Therm_solubility entry in [1] was “soluble”. Also, the pIC50 is 5.61 in the series on HCT-116 and 6.80 at Histone deacetylase 1.

Take `O=C(/C=C/c1ccc2c(c1)CN(S(=O)(=O)c1cccc(C(F)(F)F)c1)C2)NO`: the Therm_solubility result in series [1] is “soluble”. Moreover, the pIC50 is 5.69 with HCT-116, 6.80 on Histone deacetylase 1 and < 4.52 in series [4].

For the compound `COc1ccc(S(=O)(=O)N2Cc3ccc(/C=C/C(=O)NO)cc3C2)cc1`, the solubility thermodynamic in series [1] was < 5 µM. Moreover, the pIC50 at Cytochrome P450 3A4 is < 4.30; in the series with HCT-116, 6.03; against Histone deacetylase 1, 7.46; in series [4] it was < 4.52. The half-life in series [2] stood at 8.5 min; in series [3], 19 min.

For the compound `COc1cccc(S(=O)(=O)N2Cc3ccc(/C=C/C(=O)NO)cc3C2)c1`, the Therm_solubility entry in series [1] is given as “soluble”. The negative-log IC50 (pIC50) in the series with HCT-116 was 5.95; on Histone deacetylase 1, 7.04; in [4], < 4.52.

As to `O=C(/C=C/c1ccc2c(c1)CN(Cc1ccccc1)C2)NO`, the half-life came out at 29 min in series [2] and 50 min in series [3]. The pIC50 in the series with HCT-116 is 5.98; on Histone deacetylase 1, 6.70; in series [4], 4.56.

With `O=C(/C=C/c1ccc2c(c1)CN(CCC1CCCCC1)C2)NO`, the pIC50 is 6.05 in the series on HCT-116 and 7.00 on Histone deacetylase 1.

Take `O=C(/C=C/c1ccc2c(c1)CN(CCc1c[nH]c3ccccc13)C2)NO`: in series [1], the solubility thermodynamic is 490 µM (≈ 170 µg/mL). In addition, the values for the pIC50 on Cytochrome P450 3A4, with HCT-116 and against Histone deacetylase 1 were < 5.00, 6.66 and 7.80, respectively. The same compound came in with a half-life in series [2] of 5 min.

`O=C(/C=C/c1ccc2c(c1)CN(CCc1cnn3ccccc13)C2)NO`: in series [1], the solubility thermodynamic was 765 µM (≈ 267 µg/mL). Also, the pIC50 is < 4.30 against Cytochrome P450 3A4, 6.28 in the series on HCT-116, 7.11 against Histone deacetylase 1 and 5.28 in series [4]. The half-life in series [2] was found to be 9 min; in series [3] it was 112 min. Also, in the series with hERG (KCNH2) (hct-116), the selectivity ratio was 7.4.

On to `Cc1noc(-c2ccccc2)c1CCN1Cc2ccc(/C=C/C(=O)NO)cc2C1`, for which the solubility thermodynamic in [1] came out at 490 µM (≈ 191 µg/mL). In addition, the half-life worked out at 6 min in series [2] and 17 min in series [3]. The pIC50 was 5.66 in the series on HCT-116 and 6.77 against Histone deacetylase 1.

Turning to `O=C(/C=C/c1cccc(S(=O)(=O)Nc2ccccc2)c1)NO` [BELINOSTAT], in series [1], the solubility thermodynamic stood at 734 µM (≈ 234 µg/mL). Moreover, the half-life in series [2] was determined as 18 min; in [3], 405 min.

As for `O=C(/C=C/c1ccc(CN(CCO)CCc2c[nH]c3ccccc23)cc1)NO` [DACINOSTAT], the solubility thermodynamic in series [1] came to 97 µM (≈ 36.8 µg/mL). The half-life in series [2] came to 2.3 min; in [3], 12 min.

Regarding `Nc1ccccc1NC(=O)c1ccc(CNC(=O)OCc2cccnc2)cc1` [ENTINOSTAT], the solubility thermodynamic in series [1] came out at 401 µM (≈ 151 µg/mL). For the same compound, at Cytochrome P450 3A4, the pIC50 was 6.14. Besides, the half-life in series [2] and in series [3] was 405 min throughout.

For the compound `Nc1ccccc1NC(=O)c1ccc(CNc2nccc(-c3cccnc3)n2)cc1` [MOCETINOSTAT], the solubility thermodynamic in series [1] was 33 µM (≈ 13.1 µg/mL). Besides, the half-life in [2] amounted to 31.3 min; in series [3], 37.8 min.

Consider `O=C(CCCCCCC(=O)Nc1ccccc1)NO` [VORINOSTAT], for which the Therm_solubility in series [1] is 19 µM. The half-life came out at 114 min in series [2] and 405 min in series [3].
